This assay deals with MTOR (Homo sapiens, UniProt P42345). As to the kind of experiment: Z'-LYTE / Adapta biochemical kinase assay, MTOR. An excerpt: The Z′-LYTE® biochemical assay employs a fluorescence-based, coupled-enzyme format and is based on the differential sensitivity of phosphorylated and non-phosphorylated peptides to proteolytic cleavage. The peptide substrate is labeled with two fluorophores—one at each end—that make up a FRET pair. In the primary reaction, the kinase transfers the gamma-phosphate of ATP to a single tyrosine, serine or threonine residue in a synthetic FRET-peptide. In the secondary reaction, a site-specific protease recognizes and cleaves non-phosphorylated FRET-peptides. Phosphorylation of FRET-peptides suppresses cleavage by the Development Reagent. […] A ratiometric method, which calculates the ratio (the Emission Ratio) of donor emission to acceptor emission after excitation of the donor fluorophore at 400 nm, is used to quantitate reaction progress.
A significant benefit of this ratiometric method for quantitating reaction progress is the elimination of well-to-well variations in FRET-peptide concentration and signal intensities. […]
Both cleaved and uncleaved FRET-peptides contribute to the fluorescence signals and therefore to the Emission Ratio. The extent of phosphorylation of the FRET-peptide can be calculated from the Emission Ratio. […]

Consider one compound from patent US20230133958A1, “COMPOUNDS USEFUL IN MODULATING EGFR AND PI3K” (Mekanistic Therapeutics LLC, priority 2021, published 2023).

Structures are written as SMILES.

Consider `CS(=O)(=O)Nc1cc(-c2ccc3ncnc(Nc4cccc(Cl)c4F)c3c2)cnc1Cl` [Compound 6, N-[2-chloro-5-[4-(3-chloro-2-fluoro-anilino)quinazolin-6-yl]-3-pyridyl] methanesulfonamide], for which the half-inhibitory concentration (IC50) (usually the concentration that inhibits the measured activity by half) was in the range of 2 to 20 nM.
